Laboratory results published in article PMC4099323, “Inhibition of Catalase by Tea Catechins in Free and Cellular State: A Biophysical Approach” (PLoS ONE, 2014).

Molecular target: T1, Catalase (from bovine liver) (Bos taurus, UniProt P00432)
T1 construct: Catalase (from bovine liver); purchased Sigma-Aldrich, St. Louis, MO, USA; host or cells: bovine liver
T1 sequence (P00432 2-527 limits assumed): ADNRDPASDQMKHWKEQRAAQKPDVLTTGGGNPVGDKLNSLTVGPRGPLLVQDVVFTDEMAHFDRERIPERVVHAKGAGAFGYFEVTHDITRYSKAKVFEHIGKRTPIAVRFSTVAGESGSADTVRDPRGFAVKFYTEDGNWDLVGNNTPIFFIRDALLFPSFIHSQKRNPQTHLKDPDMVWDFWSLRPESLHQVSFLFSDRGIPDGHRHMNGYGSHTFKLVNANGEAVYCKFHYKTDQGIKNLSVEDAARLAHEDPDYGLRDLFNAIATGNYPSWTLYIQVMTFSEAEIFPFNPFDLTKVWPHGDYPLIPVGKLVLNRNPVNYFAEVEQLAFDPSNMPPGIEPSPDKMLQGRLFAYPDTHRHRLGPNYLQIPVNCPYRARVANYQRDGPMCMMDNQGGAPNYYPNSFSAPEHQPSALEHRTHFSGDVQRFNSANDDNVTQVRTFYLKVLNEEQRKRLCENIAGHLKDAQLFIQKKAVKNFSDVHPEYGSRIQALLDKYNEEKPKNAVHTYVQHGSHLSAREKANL
Test: Isothermal titration calorimetry of catechins binding to catalase
Conditions: 25°C
Method: The energetics of the binding of catechins to catalase was studied by ITC using a MicroCal ITC200, (Northampton, MA, USA). All solutions were degassed under vacuum (140 mbar, 10 min) on the MicroCal’s Thermovac unit to eliminate air bubble formation inside the calorimeter cell. Briefly, the calorimeter syringe was filled with a concentrated solution of catechins (10 µM each). Successive injections of this solution into 1 µM solution of catalase in the calorimeter cell were effected from the rotating syringe with constant stirring of the solution. The titration and analysis were performed through Origin 7 software provided with the unit.
ITC directly measures the heat released during a chemical reaction. ITC can reveal the stoichiometry, enthalpy free energy, and entropy changes that occur over the course of a reaction, [46]. Data obtained from the titration are presented by the series of peaks corresponding to each injection. Usually, this representation is transformed into the apparent heat change between two injections as a function of the titrant ratio by means of integration of power differential with regard to time. ITC has been used mainly to quantify interactions in various biochemical systems [47]–[49]. ITC has been used in the present study to determine binding affinity and other thermodynamic parameters of catechins-catalase interaction. Representative isothermal calorimetric heat profiles for the binding of catechins-catalase interaction, at physiological pH and 25°C are shown in Figure 4 (A–D). The data were corrected for the heat of dilution of catechins, which was determined in a separate set of experiments under identical conditions. The titration and analysis were performed using one-site binding model through Origin 7 software provided with the unit. From Figure 4 it is observed that the titration of catalase with all the four catechins yield negative heat deflections. EC, EGC, ECG, and EGCG bind to catalase with binding constants 2.13×10^5, 1.92×10^5, 6.36×10^5, and 8.19×10^5 M^−1, respectively, as determined by the following equation: ΔG = −RT ln K, where ΔG is the free energy, R and T are the gas constant and temperature, respectively, K is the binding constant.

[1] = ITC, directly extracted from the experiment

Q: For `O=C(O[C@@H]1Cc2c(O)cc(O)cc2O[C@@H]1c1cc(O)c(O)c(O)c1)c1cc(O)c(O)c(O)c1` [EGCG, (−)-epigallocatechin gallate], which ΔG (ITC, calculated from the average values of ΔH) is on record?
A: -7.95 kcal/mol

Q: And the ΔH [1]?
A: -450 ± 22.5 kcal/mol

Q: What about the ΔS [1] of the same compound?
A: −1.48×10^3 cal/mol/K

Q: What about the Kd (one-site binding model, from ΔG = −RT ln K, read-out: binding constant with catalase (ITC) (converted)) of the same compound?
A: 1.22 µM
